These results are taken from patent publication US10988477B2 (Merck Patent GmbH, priority 2018, dated 2021).

For one test, the target named is GCN2 kinase (Homo sapiens, UniProt Q9P2K8). Description: GCN2 enzyme inhibition assay (Transcreener ADP2 fluorescence polarization). The format is biochemical. The settings on record: Enzyme activity for compounds of Formula IV; Ki(app), 280 μM ATP, 25° C. In short, it runs like this: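 ADP formation read by Transcreener FP after a 1 h, 25 °C kinase reaction containing 280 μM ATP, 200 μM (RS)7 substrate and 4 nM GCN2, pH 7.5 Tris buffer. Compounds (0–8 μM final) were added 10 min before ATP. Percent inhibition gave IC50 and apparent Ki via tight-binding fit.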
Chain of GCN2 kinase (Q9P2K8 whole entry): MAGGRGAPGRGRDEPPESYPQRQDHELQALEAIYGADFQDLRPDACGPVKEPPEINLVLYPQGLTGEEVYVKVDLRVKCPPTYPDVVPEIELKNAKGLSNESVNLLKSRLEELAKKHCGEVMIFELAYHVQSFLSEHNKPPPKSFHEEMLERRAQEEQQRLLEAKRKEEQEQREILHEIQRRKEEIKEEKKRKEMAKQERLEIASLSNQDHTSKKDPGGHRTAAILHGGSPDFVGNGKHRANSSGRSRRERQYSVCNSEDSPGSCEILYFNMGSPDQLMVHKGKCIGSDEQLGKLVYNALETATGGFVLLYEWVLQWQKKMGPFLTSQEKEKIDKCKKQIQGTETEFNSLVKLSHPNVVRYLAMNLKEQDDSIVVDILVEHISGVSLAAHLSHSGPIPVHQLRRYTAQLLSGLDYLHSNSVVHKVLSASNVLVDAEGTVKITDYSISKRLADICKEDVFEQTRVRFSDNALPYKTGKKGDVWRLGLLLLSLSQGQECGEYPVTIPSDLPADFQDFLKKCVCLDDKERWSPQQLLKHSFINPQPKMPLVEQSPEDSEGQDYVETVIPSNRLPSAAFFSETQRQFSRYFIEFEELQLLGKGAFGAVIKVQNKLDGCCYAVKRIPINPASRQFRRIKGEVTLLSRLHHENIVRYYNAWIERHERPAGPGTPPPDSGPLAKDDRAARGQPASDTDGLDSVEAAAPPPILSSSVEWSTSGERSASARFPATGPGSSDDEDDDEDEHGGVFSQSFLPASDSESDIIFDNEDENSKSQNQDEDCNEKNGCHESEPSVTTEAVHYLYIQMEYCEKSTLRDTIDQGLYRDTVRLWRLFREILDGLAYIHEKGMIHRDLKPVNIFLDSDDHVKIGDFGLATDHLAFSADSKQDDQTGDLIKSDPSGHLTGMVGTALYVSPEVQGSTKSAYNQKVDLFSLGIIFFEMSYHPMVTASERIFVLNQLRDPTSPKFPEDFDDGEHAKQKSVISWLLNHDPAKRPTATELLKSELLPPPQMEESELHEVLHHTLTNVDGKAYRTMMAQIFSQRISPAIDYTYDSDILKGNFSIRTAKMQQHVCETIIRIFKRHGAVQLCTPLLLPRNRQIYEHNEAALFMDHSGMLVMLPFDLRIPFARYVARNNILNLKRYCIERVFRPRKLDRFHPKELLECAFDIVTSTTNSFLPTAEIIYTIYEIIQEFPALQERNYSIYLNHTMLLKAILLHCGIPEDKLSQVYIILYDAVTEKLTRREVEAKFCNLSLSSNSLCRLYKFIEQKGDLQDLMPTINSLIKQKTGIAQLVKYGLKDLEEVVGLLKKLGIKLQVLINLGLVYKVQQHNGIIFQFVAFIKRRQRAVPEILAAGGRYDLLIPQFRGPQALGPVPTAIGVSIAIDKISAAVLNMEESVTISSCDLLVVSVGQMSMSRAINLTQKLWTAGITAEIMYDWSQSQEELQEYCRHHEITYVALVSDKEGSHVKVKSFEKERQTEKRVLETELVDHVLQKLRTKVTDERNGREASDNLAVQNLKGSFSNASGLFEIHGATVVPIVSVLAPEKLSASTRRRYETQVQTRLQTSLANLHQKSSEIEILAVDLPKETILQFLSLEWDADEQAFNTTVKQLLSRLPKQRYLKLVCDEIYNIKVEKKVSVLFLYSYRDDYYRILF
In general terms: Polarisation of emitted light reports the rotation of a fluorescent probe.
On to `FC(F)(F)c1cn2c(-c3nccc(N4CCC[C@@H](c5c[nH]cn5)C4)n3)cnc2cn1` [IV-706], for which the Ki was less than 10 nM.

Molecule `NC(=O)c1cn2c(-c3nccc(N4CCN5CCCCC5C4)n3)cnc2cn1` (stereo not shown) [IV-265, 3-(4-(Octahydro-2H-pyrido[1,2-a]pyrazin-2-yl)pyrimidin-2-yl)imidazo[1,2-a]pyrazine-6-carboxamide] registered a Ki of 100 to 1000 nM.

In turn, `Cc1csc2c1CN(c1ccnc(-c3cnc4cnc(C(F)(F)F)cn34)n1)CC2` [IV-714] showed a Ki of 100 to 1000 nM.

Take `Cc1c[nH]nc1C1CN(c2ccnc(-c3cnc4cnc(C(F)(F)F)cn34)n2)CCO1` (stereo not shown) [IV-657, 2-(4-Methyl-1H-pyrazol-3-yl)-4-(2-(6-(trifluoromethyl)imidazo[1,2-a]pyrazin-3-yl)pyrimidin-4-yl)morpholine]: the Ki is 100 to 1000 nM.

In the case of `NC(=O)c1cn2c(-c3cccc(N4CCC(CO)CC4)n3)cnc2cn1` [IV-221, 3-(6-(4-(Hydroxymethyl)piperidin-1-yl)pyridin-2-yl)imidazo[1,2-a]pyrazine-6-carboxamide], the Ki was 10 to 100 nM.

With `FC(F)(F)c1cn2c(-c3nccc(N4CCC(Nc5cn[nH]c5)C4)n3)cnc2cn1` (stereo not shown) [IV-606, N-(1-(2-(6-(Trifluoromethyl)imidazo[1,2-a]pyrazin-3-yl)pyrimidin-4-yl)pyrrolidin-3-yl)-1H-pyrazol-4-amine], the Ki lay in the range of 100 to 1000 nM.

As to `CC1CN(c2ccnc(-c3cnc4cnc(C(F)(F)F)cn34)n2)CC1C` (stereo not shown) [IV-555, 3-(4-(3,4-Dimethylpyrrolidin-1-yl)pyrimidin-2-yl)-6-(trifluoromethyl)imidazo[1,2-a]pyrazine], the Ki was in the range of 100 to 1000 nM.

Turning to `CC1CC(C(N)=O)C(C)N(c2ccnc(-c3cnc4cnc(C(F)(F)F)cn34)n2)C1` (single isomer, unassigned) [IV-481, 2,5-Dimethyl-1-(2-(6-(trifluoromethyl)imidazo[1,2-a]pyrazin-3-yl)pyrimidin-4-yl)piperidine-3-carboxamide], the Ki is 10 to 100 nM.

Turning to `FC(F)(F)c1cn2c(-c3nccc(N4CCCC(C5CCOC5)C4)n3)cnc2cn1` (single isomer, unassigned) [IV-543, 3-(4-(3-(Tetrahydrofuran-3-yl)piperidin-1-yl)pyrimidin-2-yl)-6-(trifluoromethyl)imidazo[1,2-a]pyrazine], the Ki lay within 100 to 1000 nM.

Consider `FC(F)(F)c1cn2c(-c3nccc(N4CCCC5(CCOCC5)C4)n3)cnc2cn1` [IV-505, 2-(2-(6-(Trifluoromethyl)imidazo[1,2-a]pyrazin-3-yl)pyrimidin-4-yl)-9-oxa-2-azaspiro[5.5]undecane], for which the Ki fell in the range of 100 to 1000 nM.

Take `CS(=O)(=O)NCC1CCN(c2ccnc(-c3cnc4cnc(C(F)F)cn34)n2)C1` (stereo not shown) [IV-66, N-((1-(2-(6-(Difluoromethyl)imidazo[1,2-a]pyrazin-3-yl)pyrimidin-4-yl)pyrrolidin-3-yl)methyl)methanesulfonamide]: the Ki was 100 to 1000 nM.

Molecule `CC1C(c2cn[nH]c2)OCCN1c1ccnc(-c2cnc3cnc(C(F)(F)F)cn23)n1` (stereo not shown) [IV-218, 3-Methyl-2-(1H-pyrazol-4-yl)-4-(2-(6-(trifluoromethyl)imidazo[1,2-a]pyrazin-3-yl)pyrimidin-4-yl)morpholine] came in with a Ki of 10 to 100 nM.

`[O-][S+]1CCN(c2ccnc(-c3cnc4cnc(C(F)F)cn34)n2)CC1` [IV-80, 4-(2-(6-(Difluoromethyl)imidazo[1,2-a]pyrazin-3-yl)pyrimidin-4-yl)thiomorpholine 1-oxide] gave a Ki of 100 to 1000 nM.

For the molecule `FC(F)c1cn2c(-c3nccc(-c4cnn(C5CCOC5)c4)n3)cnc2cn1` (stereo not shown) [IV-153, 6-(Difluoromethyl)-3-(4-(1-(tetrahydrofuran-3-yl)-1H-pyrazol-4-yl)pyrimidin-2-yl)imidazo[1,2-a]pyrazine], the Ki lay in the range of 100 to 1000 nM.

The molecule `O=C(Nc1ccccn1)[C@H]1CCCN(c2ccnc(-c3cnc4cnc(C(F)(F)F)cn34)n2)C1` [IV-740] came in with a Ki of more than 1000 nM.

`OCCC1CCCCN1c1ccnc(-c2cnc3cnc(C(F)(F)F)cn23)n1` (stereo not shown) [IV-438, 2-(1-(2-(6-(Trifluoromethyl)imidazo[1,2-a]pyrazin-3-yl)pyrimidin-4-yl)piperidin-2-yl)ethan-1-ol] showed a Ki of 100 to 1000 nM.

Turning to `CS(=O)(=O)C1CCCN(c2ccnc(-c3cnc4cnc(C(F)(F)F)cn34)n2)C1` (stereo not shown) [IV-483, 3-(4-(3-(Methylsulfonyl)piperidin-1-yl)pyrimidin-2-yl)-6-(trifluoromethyl)imidazo[1,2-a]pyrazine], the Ki fell in the range of 100 to 1000 nM.

`NC(=O)c1cn2c(-c3nccc(N4CCN5C(=O)CCCC5C4)n3)cnc2cn1` (stereo not shown) [IV-257, 3-(4-(6-Oxooctahydro-2H-pyrido[1,2-a]pyrazin-2-yl)pyrimidin-2-yl)imidazo[1,2-a]pyrazine-6-carboxamide] showed a Ki of 10 to 100 nM.

For the molecule `NC(=O)c1cn2c(-c3nccc(N4CCN5C(=O)CCCC5C4)n3)cnc2cn1` (single isomer, unassigned) [IV-274, 3-(4-(6-Oxooctahydro-2H-pyrido[1,2-a]pyrazin-2-yl)pyrimidin-2-yl)imidazo[1,2-a]pyrazine-6-carboxamide], the Ki was in the range of 10 to 100 nM.

The test is the same for the next values; noted with them: compounds of Formula II; 280 μM ATP, 4 nM GCN2 kinase.
What is called IC50 is the concentration that inhibits the measured activity by half. Turning to `C[C@@H]1[C@H](CNS(C)(=O)=O)CCCN1c1cc(-c2cnc3ccc(C(F)F)nn23)ncn1` (stereo in doubt) [II-754, N-(((2R,3S)-1-(6-(6-(difluoromethyl)imidazo[1,2-b]pyridazin-3-yl)pyrimidin-4-yl)-2-methylpiperidin-3-yl)methyl)methanesulfonamide], the 50% inhibitory concentration (IC50) is more than 1000 nM.

Molecule `Cc1cc(CN=S(C)(C)=O)cc(-c2cc(-c3cnc4ccc(C(F)F)nn34)ncn2)c1` [II-610, [3-[6-[6-(Difluoromethyl)imidazo[1,2-b]pyridazin-3-yl]pyrimidin-4-yl]-5-methyl-phenyl]methylimino-dimethyl-oxo-λ^6-sulfane] yielded a Ki of 10 to 1000 nM.

`CC1C(N=S(C)(C)=O)CCCN1c1cc(-c2cnc3ccc(C(F)F)nn23)ncn1` (single isomer, unassigned) [II-582, ((1-(6-(6-(Difluoromethyl)imidazo[1,2-b]pyridazin-3-yl)pyrimidin-4-yl)-2-methylpiperidin-3-yl)imino)dimethyl-λ^6-sulfanone] yielded a Ki of more than 1000 nM.

`CN1CCN(c2cc(-c3cnc4ccc(C(F)F)nn34)ncn2)CC1CS(N)(=O)=O` (stereo not shown) [II-464, (4-(6-(6-(Difluoromethyl)imidazo[1,2-b]pyridazin-3-yl)pyrimidin-4-yl)-1-methylpiperazin-2-yl)methanesulfonamide] registered a Ki of 10 to 1000 nM.

The molecule `N#CCC1CN(c2cc(-c3cnc4ccc(C(F)F)nn34)ncn2)CCO1` (single isomer, unassigned) [II-565, 2-(4-(6-(6-(Difluoromethyl)imidazo[1,2-b]pyridazin-3-yl)pyrimidin-4-yl)morpholin-2-yl)acetonitrile] yielded a Ki of 10 to 1000 nM.

`CC1C(N=S(C)(C)=O)CCCN1c1cc(-c2cnc3ccc(C(F)F)nn23)ncn1` (single isomer, unassigned) [II-594, ((1-(6-(6-(Difluoromethyl)imidazo[1,2-b]pyridazin-3-yl)pyrimidin-4-yl)-2-methylpiperidin-3-yl)imino)dimethyl-λ^6-sulfanone] displayed a Ki of 10 to 1000 nM.

The molecule `Cc1cc(CNS(C)(=O)=O)cc(-c2cc(-c3cnc4ccc(C(F)F)nn34)ncn2)c1` [II-612, N-(3-(6-(6-(Difluoromethyl)imidazo[1,2-b]pyridazin-3-yl)pyrimidin-4-yl)-5-methylbenzyl)methanesulfonamide] gave a Ki of less than 10 nM.

With `CS(=N)(=O)CC1CCCN(c2cc(-c3cnc4ccc(C(F)F)nn34)ncn2)C1` (single isomer, unassigned) [II-639, ((1-(6-(6-(Difluoromethyl)imidazo[1,2-b]pyridazin-3-yl)pyrimidin-4-yl)piperidin-3-yl)methyl)(imino)(methyl)-λ^6-sulfanone], the Ki fell in the range of 10 to 1000 nM.

`CC1CCC(N=S(C)(C)=O)CN1c1cc(-c2cnc3ccc(C(F)F)nn23)ncn1` (stereo not shown) [II-697, [1-[6-[6-(Difluoromethyl)imidazo[1,2-b]pyridazin-3-yl]pyrimidin-4-yl]-6-methyl-3-piperidyl]imino-dimethyl-λ^6-sulfanone]: the Ki is more than 1000 nM.

In turn, `CC1(C)CN(c2cc(-c3cnc4ccc(C(F)F)nn34)ncn2)CC(CNS(C)(=O)=O)N1` (stereo not shown) [II-569, N-((4-(6-(6-(Difluoromethyl)imidazo[1,2-b]pyridazin-3-yl)pyrimidin-4-yl)-6,6-dimethylpiperazin-2-yl)methyl)methanesulfonamide] had a Ki of 10 to 1000 nM.

`CS(=O)(=O)NC1CN(c2cc(-c3cnc4ccc(C(F)F)nn34)ncn2)CCC1(F)F` (stereo not shown) [II-596, N-(1-(6-(6-(Difluoromethyl)imidazo[1,2-b]pyridazin-3-yl)pyrimidin-4-yl)-4,4-difluoropiperidin-3-yl)methanesulfonamide] returned a Ki of 10 to 1000 nM.

For the molecule `COCCOC1CC(CNS(C)(=O)=O)CN(c2cc(-c3cnc4ccc(C(F)F)nn34)ncn2)C1` (stereo not shown) [II-549, N-((1-(6-(6-(Difluoromethyl)imidazo[1,2-b]pyridazin-3-yl)pyrimidin-4-yl)-5-(2-methoxyethoxy)piperidin-3-yl)methyl)methanesulfonamide], the Ki lay in the range of 10 to 1000 nM.

As to `CC1(C)CN(c2cc(-c3cnc4ccc(C(F)F)nn34)ncn2)CC(CNS(C)(=O)=O)N1` (stereo not shown) [II-570, N-((4-(6-(6-(Difluoromethyl)imidazo[1,2-b]pyridazin-3-yl)pyrimidin-4-yl)-6,6-dimethylpiperazin-2-yl)methyl)methanesulfonamide], the Ki lay in the range of 10 to 1000 nM.

Turning to `OC[C@@H]1CCCN(c2cc(-c3cnc4ccc(C(F)(F)F)nn34)ncn2)C1` [II-517, (R)-(1-(6-(6-(Trifluoromethyl)imidazo[1,2-b]pyridazin-3-yl)pyrimidin-4-yl)piperidin-3-yl)methanol], the Ki was 10 to 1000 nM.

In turn, `CC1CN(c2cc(-c3cnc4ccc(C(F)F)nn34)ncn2)C(C)C(c2cn[nH]c2)N1` (single isomer, unassigned) [II-653, 6-(Difluoromethyl)-3-(6-(2,5-dimethyl-3-(1H-pyrazol-4-yl)piperazin-1-yl)pyrimidin-4-yl)imidazo[1,2-b]pyridazine] came in with a Ki of 10 to 1000 nM.
